Assay [1] deals with HCV genotype 1b subgenomic replicon. As to the kind of experiment: HCV replicon assay, genotype 1b (luciferase, ET cell line). Format: cell-based. Conditions: Hepatitis C virus; genotype 1b replicon (ET cell line); luciferase activity measured 48 hours later; 10 point dose response; read-out: 1B pEC50 (converted). On the procedure:
(§1) Protocol for Testing and Data Analysis of Compounds in the HCV Replicon Assay
(§2) Compounds were assayed for activity against HCV using the genotype 1a and 1b subgenomic replicon model systems. Stable cell lines bearing the genotype 1a and 1b replicons were used for screening of compounds. Both replicons are bicistronic and contain the firefly luciferase gene. The ET cell line is stably transfected with RNA transcripts harboring a I389luc-ubi-neo/NS3-3′/ET replicon with firefly luciferase-ubiquitin-neomycin phosphotransferase fusion protein and EMCV-IRES driven NS3-5B polyprotein containing the cell culture adaptive mutations (E1202G; T1280I; K1846T) (Krieger at al, 2001 and unpublished). The genotype 1a replicon is a stable cell line licensed from Apath LLC, modified to contain the firefly luciferase gene. The cells were grown in DMEM, supplemented with 10% fetal calf serum, 2 mM Glutamine, Penicillin (100 IU/mL)/Streptomycin (100 μg/mL), 1× nonessential amino acids, and 250-500 μg/mL G418 (“Geneticin”). They were all available through Life Technologies (Bethesda, Md.). The cells were plated at 0.5×10^4 cells/well in 384 well plates containing compounds. The final concentration of compounds ranged between 0.03 pM to […] and the final DMSO concentration of 0.5-1%.
(§3) Luciferase activity was measured 48 hours later by adding a Steady glo (Promega, Madison, Wis.). Percent inhibition of replication data was plotted relative to no compound control. Under the same condition, cytotoxicity of the compounds was determined using cell titer glo (Promega, Madison, Wis.). EC50s were determined from a 10 point dose response curve using 3-4-fold serial dilution for each compound, which spans a concentration range >1000 fold. BioAssay determines the level of inhibition for each compound by normalizing cross-talk corrected plate values against the negative (low or background, cells with no compound present) and positive (high DMSO, no cells) controls to determine Percent Inhibition:
(§4) These normalized values are exported to EC50 where they are plotted against the molar compound concentrations using the standard four parameter logistic equation:
(§5) A=minimum y D=slope factor
(§6) B=maximum y x=log10 compound concentration [M]

Assay [2] concerns HCV genotype 1a subgenomic replicon. The assay is described as follows: HCV replicon assay, genotype 1a (luciferase). Format: cell-based. Conditions: Hepatitis C virus; genotype 1a replicon stable cell line; luciferase activity measured 48 hours later; 10 point dose response; read-out: 1A pEC50 (converted). The method, then:
as §1, §2, §3, §4, §5, §6

Consider `COC(=O)N[C@H](C(=O)N1CC(C2CC2)=C[C@H]1c1ncc(-c2ccc(-c3ccc(-c4cnc([C@@H]5CCCN5C(=O)[C@@H](NC(=O)OC)C(C)C)[nH]4)cc3)cc2)[nH]1)C(C)C` [example 11, methyl[(1S)-1-({(2S)-2-[4-(4′-{2-[(2S)-4-cyclopropyl-1-((2S)-3-methyl-2-{[(methyloxy)carbonyl]amino}butanoyl)-2,5-dihydro-1H-pyrrol-2-yl]-1H-imidazol-4-yl}-4-biphenylyl)-1H-imidazol-2-yl]-1-pyrrolidinyl}carbonyl)-2-methylpropyl]carbamate], for which the EC50 in assay [1] is 0.00468 nM; in assay [2], 0.0126 nM.
Taken in the same sequence, the figures for `CC=C1C[C@@H](c2ncc(-c3ccc(-c4ccc(-c5cnc([C@@H]6CCCN6C(=O)C(NC(=O)OC)C(C)C)[nH]5)cc4)cc3)[nH]2)N(C(=O)C(NC(=O)OC)C(C)C)C1` (stereo partly drawn) [example 12, (1-{(S)-2-[5-(4′-{2-[(S)-4-Ethylidene-1-(2-methoxycarbonylamino-3-methyl-butyryl)-pyrrolidin-2-yl]-3H-imidazol-4-yl}-biphenyl-4-yl)-1H-imidazol-2-yl]-pyrrolidine-1-carbonyl}-2-methyl-propyl)-carbamic acid methyl ester] were 0.00437 nM and 0.0158 nM.
On the same counts, the results for `CCC1=C[C@@H](c2ncc(-c3ccc(-c4ccc(-c5cnc([C@@H]6CCCN6C(=O)C(NC(=O)OC)C(C)C)[nH]5)cc4)cc3)[nH]2)N(C(=O)[C@H](NC(=O)OC)C(C)C)C1` (stereo partly drawn) [example 10, (1-{(S)-2-[5-(4′-{2-[(S)-4-Ethyl-1-((R)-2-methoxycarbonylamino-3-methyl-butyryl)-2,5-dihydro-1H-pyrrol-2-yl]-3H-imidazol-4-yl}-biphenyl-4-yl)-1H-imidazol-2-yl]-pyrrolidine-1-carbonyl]-2-methyl-propyl)-carbamic acid methyl ester] are 0.00603 nM and 0.0316 nM.
On the same counts, the results for `COC(=O)N[C@H](C(=O)N1CCC[C@H]1c1ncc(-c2ccc(-c3ccc(-c4cnc([C@@H]5C=C(C)CN5C(=O)[C@H](NC(=O)OC)C(C)C)[nH]4)cc3)cc2)[nH]1)C(C)C` [example 9, (1-{(S)-2-[5-(4′-{2-[(S)-1-((R)-2-Methoxycarbonylamino-3-methyl-butyryl)-4-methyl-2,5-dihydro-1H-pyrrol-2-yl]-3H-imidazol-4-yl}-biphenyl-4-yl)-1H-imidazol-2-yl]-pyrrolidine-1-carbonyl}-2-methyl-propyl)-carbamic acid methyl ester] are 0.00776 nM and 0.0158 nM.
As to `CN(C)[C@@H](C(=O)N1CCC[C@H]1c1nc(-c2ccc(-c3ccc(-c4c[nH]c([C@@H]5COC6(CCOCC6)N5C(=O)OCc5ccccc5)n4)cc3)cc2)c[nH]1)c1ccccc1` [example 1], the EC50 in assay [1] is 0.00347 nM; in assay [2], 1.58 nM.

The values above are taken from patent publication US8729077B2, “Anti-viral compounds, compositions, and methods of use” (GlaxoSmithKline LLC, priority 2008, dated 2014).
